Test results: publication PMC7391456, “Targeting fibroblast activation protein (FAP): next generation PET radiotracers using squaramide coupled bifunctional DOTA and DATA^5m chelators” (EJNMMI Radiopharmacy and Chemistry, 2020)

Experiments:
[1] = biological target: T1, human FAP (Homo sapiens, UniProt Q12884); assay: FAP inhibition assay (IC50, Z-Gly-Pro-AMC substrate); type: biochemical
T1 construct: the human secretion signal was replaced with the HoneyBee mellitin secretion signal; HoneyBee mellitin secretion signal (replaces the native signal-anchor) (N); C-terminal tag of the BaculoDirect C-term kit (C); made in house; host or cells: Sf9 insect cells (baculovirus); purified from the supernatant
T1 sequence (Q12884 26-760 limits assumed): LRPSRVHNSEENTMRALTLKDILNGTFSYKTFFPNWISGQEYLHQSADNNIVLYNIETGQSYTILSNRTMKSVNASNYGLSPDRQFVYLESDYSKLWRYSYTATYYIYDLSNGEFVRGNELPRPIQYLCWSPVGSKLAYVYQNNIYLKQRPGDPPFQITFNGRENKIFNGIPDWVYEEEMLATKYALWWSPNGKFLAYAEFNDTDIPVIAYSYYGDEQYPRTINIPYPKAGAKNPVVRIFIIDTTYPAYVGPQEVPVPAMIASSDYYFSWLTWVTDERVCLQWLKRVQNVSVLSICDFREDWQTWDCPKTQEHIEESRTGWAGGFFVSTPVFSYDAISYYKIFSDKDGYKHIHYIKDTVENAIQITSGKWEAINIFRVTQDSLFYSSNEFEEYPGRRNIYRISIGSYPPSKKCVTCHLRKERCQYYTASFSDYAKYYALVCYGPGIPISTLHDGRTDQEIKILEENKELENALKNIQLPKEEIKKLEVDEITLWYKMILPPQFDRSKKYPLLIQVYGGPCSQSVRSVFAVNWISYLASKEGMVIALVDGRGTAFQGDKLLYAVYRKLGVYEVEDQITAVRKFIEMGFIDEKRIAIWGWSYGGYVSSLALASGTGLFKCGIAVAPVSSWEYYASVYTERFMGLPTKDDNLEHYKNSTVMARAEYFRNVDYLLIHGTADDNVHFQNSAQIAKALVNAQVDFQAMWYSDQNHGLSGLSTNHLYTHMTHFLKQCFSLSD
Excerpt: (§1) Enzymes: A gateway-entry clone for human FAP was purchased from Dharmacon (Accession number DQ891423) and the human secretion signal was replaced with the HoneyBee mellitin secretion signal. For transfection and expression of FAP in Sf9 insect cells, the C-terminal BaculoDirect kit from LifeTechnologies was used. The enzyme was purified from the supernatant of the insect cells using immobilized Ni-chelating chromatography (GE healthcare, Diegem, Belgium), followed by anion-exchange chromatography using a 1 mL HiTrap Q (GE healthcare, Diegem, Belgium). Human recombinant PREP was expressed in BL21(DE3) cells and purified using immobilized Co-chelating chromatography (GE healthcare) followed by anion-exchange chromatography on a 1 ml Mono Q column (GE healthcare).
(§2) Eight concentrations of inhibitors were tested. The final DMSO concentration was kept constant during the experiment to exclude any solvent effects. Inhibitors were pre-incubated with the enzyme for 15 min at 37 °C, afterwards the substrate was added and the velocities of AMC release were measured kinetically at λex = 380 nm, λem = 465 nm for at least 10 min at 37 °C. The Infinite 200 (Tecan Group Ltd.) micro-titer plate reader and the Magellan software were used for measurement and data processing respectively.
(§3) The data were fitted using a non-linear fit model in GraFit 7 software, according to the following equation: y=range/1+x/IC50^s where y is the value of the residual enzymatic activity compared to a non-inhibited sample, x is the final inhibitor concentration in the assay, s is the slope factor and the IC50 is the half maximal inhibitory concentration.

[2] = biological target: T2, Human recombinant PREP (Homo sapiens, UniProt P48147); assay: PREP inhibition assay (IC50, N-succinyl-Gly-Pro-AMC substrate); type: biochemical; conditions: N-succinyl-Gly-Pro-AMC 250 μM, pH 7.4, 15 min pre-incubation at 37 °C
T2 sequence (P48147 1-710): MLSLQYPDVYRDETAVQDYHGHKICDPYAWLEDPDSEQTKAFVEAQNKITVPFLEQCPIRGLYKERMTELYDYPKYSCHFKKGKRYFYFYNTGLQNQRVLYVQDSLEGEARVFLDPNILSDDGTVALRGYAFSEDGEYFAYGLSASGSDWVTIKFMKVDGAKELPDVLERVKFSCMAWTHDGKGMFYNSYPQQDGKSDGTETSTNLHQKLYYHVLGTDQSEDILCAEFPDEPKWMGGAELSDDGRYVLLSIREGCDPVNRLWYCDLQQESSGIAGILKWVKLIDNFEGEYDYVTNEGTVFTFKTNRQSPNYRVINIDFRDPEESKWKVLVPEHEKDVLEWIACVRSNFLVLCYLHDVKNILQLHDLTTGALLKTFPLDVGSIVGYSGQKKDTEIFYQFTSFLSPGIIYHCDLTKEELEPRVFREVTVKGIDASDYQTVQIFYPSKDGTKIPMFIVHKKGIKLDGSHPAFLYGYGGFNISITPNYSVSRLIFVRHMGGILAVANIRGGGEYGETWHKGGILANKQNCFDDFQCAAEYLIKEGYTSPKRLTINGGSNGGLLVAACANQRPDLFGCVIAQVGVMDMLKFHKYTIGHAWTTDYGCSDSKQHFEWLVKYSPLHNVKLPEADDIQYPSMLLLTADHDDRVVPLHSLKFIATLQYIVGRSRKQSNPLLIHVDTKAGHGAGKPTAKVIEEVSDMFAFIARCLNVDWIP
Excerpt: as §1
as §2, with “concentration is” for “concentration was”, “any” for “any solvent”, “data processing,” for “data processing”
as §3

[3] = Stability studies of gallium-68 complexes in media (EtOH, human serum, saline, PBS); type: physicochemical; conditions: different media (summary statement)
Procedure: Gallium-68 stability studies against transmetallation (Fe, Cu, Ca, Mg), transchelation (EDTA, DTPA) as well as in HS, EtOH and saline (0.9% isotone NaCl-solution) were performed. 50 μl of the [^68Ga]Ga-DOTA.SA.FAPi labeling solution with > 95% radiochemical purity were added to 1 mL of the respective media. The measured time points for gallium-68 were 15, 30, 45, 60, 90, 120 min. HS (human male AB plasma, USA origin) was bought from Sigma Aldrich, PBS was purchased from Sigma Aldrich and 0.9% saline from B. Braun Melsungen AG (Melsungen, Germany).

[4] = system: FAP; design: method as in originally published value; conditions: different FAP substrate (Ala-Pro-pNA); ref originally published value; cited from earlier work
[5] = system: HT-1080 FAP; design: method as in Lindner et al. [2018]; conditions: HT-1080 FAP tumor model, read from graphs; ref Lindner et al. [2018]; cited from earlier work
[6] = system: PANC-1; design: method as in Watabe et al. [2020]; conditions: read from graphs, ref Watabe et al. [2020], cited from earlier work
[7] = system: MIA-PaCa-2; design: method as in Watabe et al. [2020]; conditions: MIA-PaCa-2 tumor model, read from graphs; ref Watabe et al. [2020]; cited from earlier work
[8] = PANC-1 / MIA-PaCa-2, one value given

## N#C[C@@H]1CC(F)(F)CN1C(=O)CNC(=O)c1ccnc2ccc(OCCCCNc3c(NCCNC(=O)CN4CCN(CC(=O)O)CCN(CC(=O)O)CCN(CC(=O)O)CC4)c(=O)c3=O)cc12 [DOTA.SA.FAPi, (S)-2,2′,2″-(10-(2-((2-((2-((4-((4-((2-(2-cyano-4,4-difluoropyrrolidin-1-yl)-2-oxo-ethyl)carbamoyl)quinolin-6-yl)oxy)butyl)amino)-3,4-dioxocyclobut-1-en-1-yl)amino)ethyl)amino)-2-oxoethyl)-1,4,7,10-tetraazacyclododecane-1,4,7-triyl) triacetic acid]
[1]; Z-Gly-Pro-AMC 50 μM, pH 8, 15 min pre-incubation at 37 °C
  IC50: 0.9 ± 0.1 nM
[1]; ratio of the IC50 values for FAP and PREP
  Selectivity index (IC50 PREP / IC50 FAP): 6000
[2]
  IC50: 5400 ± 300 nM
[3]
  Stability in different media, intact conjugate: more than 95%

## N#C[C@@H]1CC(F)(F)CN1C(=O)CNC(=O)c1ccnc2ccc(OCCCN3CCN(C(=O)CN4CCN(CC(=O)[O-])CCN(CC(=O)[O-])CCN(CC(=O)[O-])CC4)CC3)cc12.[68Ga+3] [[^68Ga]Ga-FAPI-04]
[5]
  SUVmean(60 min p.i.) Heart: 0.16
  SUVmean(60 min p.i.) Kidney: 0.33
  SUVmean(60 min p.i.) Liver: 0.11
  SUVmean(60 min p.i.) Muscle: 0.06
  SUVmean(60 min p.i.) Tumor: 0.45
[6]; [8]
  SUVmean(60 min p.i.) Heart: 0.17
  SUVmean(60 min p.i.) Kidney: 0.36
  SUVmean(60 min p.i.) Liver: 0.67
  SUVmean(60 min p.i.) Muscle: 0.03
[6]; PANC-1 tumor model
  SUVmean(60 min p.i.) Tumor: 0.14
[7]
  SUVmean(60 min p.i.) Tumor: 0.11
